The text below walks through data of patent US6380169B1, “Metal complex containing oligonucleoside cleavage compounds and therapies” (ISIS Pharmaceuticals, Inc., priority 1994, dated 2002).

In this assay the test system is 5′-capped RNA transcript (SEQ ID NO:1). Description: Cleavage of 3′-end-labeled, 5′-capped RNA by Eu[THED]^3+ (single strand or hybridized to complementary 18-mer DNA oligomer). The class given is biochemical. To be noted: 1 mM Eu[THED]^3+. As to the method: In particular, the ability of Eu[THED]^3+ to hydrolyze 5′-capped RNA was established using a 3′-radiolabeled, 5′-capped RNA transcript.
A target oligonucleotide transcript having the following sequence was used (SEQ ID NO:1):
5′-capped RNA was made from the above amplicon using a T7 MEGAshortscript™ transcription kit (Ambion). 5′-capped transcripts were synthesized in a 20 μL reaction volume containing transcription buffer, T7 RNA polymerase, 7.5 mM rNTPs (except rGTP), 1.9 mM rGTP, 7.5 mM ^7MeGpppG and 200 nM DNA amplicon template. For synthesis of uncapped RNA, the capping dinucleotide was omitted from the reaction and rGTP concentration was increased to 7.5 mM. Reaction mixtures were incubated four hours at 37° C. After the transcription reaction was complete, template DNA was digested with 1 U DNase for 15 minutes at 37° C. Transcripts were purified from unincorporated nucleotides and truncated message by PAGE. The transcripts were visualized by UV back shadowing, and the RNA in the excised gel bands was purified using an RNaid™ kit (Bio 101) which is designed specifically for purification of RNA from polyacrylamide gels. As expected, the product of the 5′-capped RNA reaction contained a band that ran one base slower than the uncapped transcript on a 15% gel.
Transcripts were 3′ end-labeled with ^32p cordycepin triphosphate using terminal transferase. This enzyme prefers DNA as a substrate, but limited labeling of RNA can be achieved with the use of Co^++. As expected, 3′-end-labeling occurred, but the extent of labeling was low.
After preparing 3′-end-labeled, 5′-capped RNA, the ability of Eu[THED]^3+ to cleave (or “decapitate”) the cap structure of the RNA was tested. The reaction conditions were as follows: 1 mM Eu[THED]^3+, 75 μM capped RNA target (˜3 mM with respect to phosphate bonds), 20 mM Tris-HCl, pH 7.0, 100 mM NaCl and 0.2% SDS. A second set of samples further contained 100 μM of an 18-mer DNA oligomer which was complementary to the sequence immediately adjacent to the 5′-cap. […]

Setting [1] is: Hybrid (100 μM 18-mer DNA), time 0 min.
Where [2] appears, read: Hybrid (100 μM 18-mer DNA), time 15 min.
Where [3] appears, read: Hybrid (100 μM 18-mer DNA), time 30 min.
Where [4] appears, read: Hybrid (100 μM 18-mer DNA), time 60 min.
Setting [5] is: Hybrid (100 μM 18-mer DNA), time 120 min.
Where [6] appears, read: Hybrid (100 μM 18-mer DNA), time 180 min.

Take “europium (III) complex of 1,4,7,10-tetrakis (2-hydroxyethyl)-1,4,7,10-tetraazacyclododecane [Eu[THED]]”: the “Capped RNA counts/area” value is, setting by setting: under setting [1], 3975 counts/area; under setting [2], 4073 counts/area; under setting [3], 4070 counts/area; under setting [4], 3315 counts/area; under setting [5], 3509 counts/area; under setting [6], 2658 counts/area. Also, the “Capped RNA counts/area” value by setting is: (ssRNA, time 0 min) 3266 counts/area; (ssRNA, time 30 min) 3481 counts/area; (ssRNA, time 120 min) 2232 counts/area; (ssRNA, time 180 min) 1982 counts/area. Also, the “Decapitated RNA counts/area” value by setting is: under setting [1], 1031 counts/area; under setting [2], 923 counts/area; under setting [3], 1073 counts/area; under setting [4], 1583 counts/area; under setting [5], 1946 counts/area; under setting [6], 1934 counts/area. In addition, the “Decapitated RNA counts/area” value reads like this: (ssRNA, time 0 min) 1130 counts/area; (ssRNA, time 30 min) 1736 counts/area; (ssRNA, time 120 min) 2195 counts/area; (ssRNA, time 180 min) 1949 counts/area. Also, the “backbone cleavage of RNA” value (either data set (ssRNA and hybrid), 75 μM capped RNA) is recorded as “no evidence of backbone cleavage”.
